Measured values reported in patent US10030016B2 (Sunesis Pharmaceuticals, Inc., priority 2009, dated 2018).
Counter-ions that a name gives are not always drawn. Like-named read-outs stand apart in the source and are kept apart here.

Experiments:
[1] = biological target: PDK1 (Homo sapiens (Human), UniProt O15530); experiment: PDK1 kinase assay (coupled PDK1/AKT/FAM-crosstide assay, IMAP fluorescence polarization); assay type: biochemical
Method in brief: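 Inhibition is derived by 4-parameter fitting of ΔmP from an IMAP fluorescence polarization read of FAM-crosstide (100 nM) phosphorylation. The cascade ran 30 min at 25 °C with 40 μM ATP, using insect-cell GST-PDK1 51-359 (0.75 nM) driving 10 nM unphosphorylated AKT2 140-467-PIFtide fusion.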

[2] = tested on: phospho-akt (Thr308) in PC-3 cells; experiment: Inhibition of phospho-akt (Thr308) in PC-3 cells, MSD phospho-akt 308 ELISA kit; assay type: cell-based; conditions: Homo sapiens, 2 hours, no serum, read-out: EC50
Method in brief: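 PC-3 cells were seeded overnight in growth medium with 10% FBS, then exposed to compound serially diluted threefold in serum-free medium for 2 hours. Lysates were captured overnight at 4 degrees on MSD plates and phospho-Akt Thr308 was detected electrochemiluminescently, against DMSO high and 5 μM wortmannin low controls.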

[3] = inhibition of P308 Akt in PC-3 cells using MSD
[4] = inhibition of phospo-PDK1 in vitro
[5] = inhibition of P308 Akt in PC-3 cells, MSD

PDK1, sequence (O15530 51-359): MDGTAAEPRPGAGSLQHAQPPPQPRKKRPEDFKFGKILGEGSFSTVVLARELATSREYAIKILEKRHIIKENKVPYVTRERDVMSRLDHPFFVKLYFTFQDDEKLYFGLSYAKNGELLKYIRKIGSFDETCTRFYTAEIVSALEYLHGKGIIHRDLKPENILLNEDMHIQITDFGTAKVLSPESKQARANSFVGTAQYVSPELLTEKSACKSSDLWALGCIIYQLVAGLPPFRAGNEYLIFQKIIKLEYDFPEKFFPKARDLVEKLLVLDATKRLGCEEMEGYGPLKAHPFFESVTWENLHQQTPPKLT

## C[C@H](NC(=O)c1cc(C#N)cnc1NCc1ccc(-c2cnc(N)c(O[C@H]3CCNC3)n2)cc1)c1ccc(F)cc1 [Example 162, 2-{4-[5-Amino-6-((S)-pyrrolidin-3-yloxy)-pyrazin-2-yl]-benzylamino}-5-cyano-N-[(S)-1-(4-fluoro-phenyl)-ethyl]-nicotinamide]
[1]; inhibition of PDK1 in vitro
  IC50: < 100 nM
[2]; [3]
  EC50: < 1000 nM

## C[C@H](NC(=O)c1cc(C#N)cnc1NCc1ccc(-c2cnc(N)c(C(N)=O)c2)cc1)c1ccc(F)cc1 [Example 201, (S)-2-(4-(6-amino-5-carbamoylpyridin-3-yl)benzylamino)-5-cyano-N-(1-(4-fluorophenyl)ethyl)nicotinamide]
[1]; inhibition of PDK1 in vitro
  IC50: < 100 nM
[2]; [3]
  EC50: < 1000 nM

## CC(=O)Nc1cnc(NCc2ccc(-c3ccc4ncnc(N)c4c3)s2)c(C(=O)NCc2ccc(F)c(F)c2)c1 [Ex. 8.5.1, 5-(acetylamino)-2-({[5-(4-aminoquinazolin-6-yl)thiophen-2-yl]methyl}amino)-N-(3,4-difluorobenzyl)pyridine-3-carboxamide]
[1]; [4]
  IC50: < 100 nM
[2]; [5]
  EC50: 1000 to 10000 nM

## Nc1cnc(-c2ccc(CNc3ncc(C(F)(F)F)cc3C(=O)NCc3ccc(F)c(F)c3)cn2)cn1 [Example 326]
[1]; inhibition of PDK1 in vitro
  IC50: 100 to 1000 nM
[2]; [3]
  EC50: > 10000 nM

## COc1ccnc(NCc2ccc(-c3ccc4ncnc(N)c4c3)s2)c1C(=O)N[C@@H](C)c1ccc(F)cc1 [Ex. 7.6, (S)-2-(((5-(4-aminoquinazolin-6-yl)thiophen-2-yl)methyl)amino)-N-(1-(4-fluoro-phenyl)ethyl)-4-methoxynicotinamide]
[1]; [4]
  IC50: < 100 nM
[2]; [5]
  EC50: < 1000 nM

## CC(=O)Nc1ccc(-c2ccc(CNc3ncc(C#N)cc3C(=O)N[C@@H](C)c3ccc(F)cc3)cc2)cn1 [Example 105, (S)-2-(4-(6-acetamido-pyridin-3-yl)benzylamino)-5-cyano-N-(1-(4-fluorophenyl)ethyl) nicotinamide]
[1]; inhibition of PDK1 in vitro
  IC50: < 100 nM
[2]; [3]
  EC50: < 1000 nM

## C[C@H](NC(=O)c1cc(C#N)cnc1NCc1ccc(-c2cnc(N)cn2)c(F)c1)c1ccc(F)cc1 [Example 131, (S)-2-(4-(5-aminopyrazin-2-yl)-3-fluorobenzylamino)-5-cyano-N-(1-(4-fluorophenyl)ethyl) nicotinamide]
[1]; inhibition of PDK1 in vitro
  IC50: < 100 nM
[2]; [3]
  EC50: 1000 to 10000 nM

## Nc1n[nH]c2ncc(-c3ccc(CNc4ncc(C(F)(F)F)cc4-c4nc5cc(F)ccc5[nH]4)cc3)cc12 [Example 349, 5-(4-((3-(5-fluoro-1H-benzo[d]imidazol-2-yl)-5-(trifluoromethyl)pyridin-2-ylamino)methyl)phenyl)-1H-pyrazolo[3,4-b] pyridin-3-amine]
[1]; inhibition of PDK1 in vitro
  IC50: > 5000 nM
[2]; [3]
  EC50: > 10000 nM

## Nc1ncnc2ccc(-c3ccc(CNc4ncccc4C(=O)NCc4cc(F)c(F)cc4F)s3)cc12 [Example 3.11, 2-({[5-(4-aminoquinazolin-6-yl)thiophen-2-yl]methyl}amino)-N-(2,4,5-trifluorobenzyl)pyridine-3-carboxamide (TFA salt)]
[1]; [4]
  IC50: < 100 nM
[2]; [5]
  EC50: > 10000 nM

## Nc1ncnc2ccc(-c3ccc(CNc4nc5ccccc5cc4C(=O)NCc4ccc(F)c(F)c4)s3)cc12 [Ex. 8.14.1, 2-({[5-(4-aminoquinazolin-6-yl)thiophen-2-yl]methyl}amino)-N-(3,4-difluorobenzyl) quinoline-3-carboxamide]
[1]; [4]
  IC50: < 100 nM
[2]; [5]
  EC50: < 1000 nM

## CCCn1cc(-c2ccc(CNc3ncc(C(F)(F)F)cc3C(=O)Nc3ccc(F)cc3)cc2)c2c(N)ncnc21 [Example 429, 2-(4-(4-amino-7-propyl-7H-pyrrolo[2,3-d]pyrimidin-5-yl)benzylamino)-N-(4-fluorophenyl)-5-(trifluoromethyl)nicotinamide]
[1]; inhibition of PDK1 in vitro
  IC50: < 100 nM
[2]; [3]
  EC50: 1000 to 10000 nM

## C[C@H](NC(=O)c1cn(C)nc1NCc1ccc(-c2ccc3ncnc(N)c3c2)s1)c1ccc(F)cc1 [Example 11.5, 3-({[5-(4-aminoquinazolin-6-yl)thiophen-2-yl]methyl}amino)-N-[(1S)-1-(4-fluorophenyl)ethyl]-1-methyl-1H-pyrazole-4-carboxamide]
[1]; [4]
  IC50: < 100 nM
[2]; [5]
  EC50: 1000 to 10000 nM

## COc1ccc([C@H](COc2ccc3[nH]c(=O)[nH]c3c2)Nc2ncccc2C(=O)N[C@@H](C)c2ccc(F)c(F)c2)cc1 [Example 16.8, N-((S)-1-(3,4-difluorophenyl)ethyl)-2-(((R)-1-(4-methoxyphenyl)-2-(2-oxo-2,3-dihydro-1H-benzo[d]imidazol-5-yloxy)ethyl)amino)nicotinamide]
[1]; [4]
  IC50: 1000 to 5000 nM
[2]; PC-3, 2 h, inhibition of P308 Akt in PC-3 cells, MSD
  EC50: > 10000 nM

## Nc1ncnc2ccc(-c3ccccc3CNc3ncccc3C(=O)NCc3ccc(F)c(F)c3)cc12 [Ex. 6.5, 2-{[2-(4-aminoquinazolin-6-yl)benzyl]amino}-N-(3,4-difluorobenzyl) pyridine-3-carboxamide]
[1]; [4]
  IC50: > 5000 nM
[2]; [5]
  EC50: 1000 to 10000 nM

## Nc1ncnc2ccc(-c3ccc(CNc4ncccc4C(=O)NCc4ccncc4)s3)cc12 [Example 3.38, 2-({[5-(4-aminoquinazolin-6-yl)thiophen-2-yl]methyl}amino)-N-(pyridin-4-ylmethyl) pyridine-3-carboxamide (TFA salt)]
[1]; [4]
  IC50: 1000 to 5000 nM
[2]; [5]
  EC50: > 10000 nM

## Nc1n[nH]c2ncc(-c3ccc(CNc4ncc(C(F)(F)F)cc4C(=O)NC[C@@H]4CCCO4)cc3)cc12 [Example 309, (S)-2-(4-(3-amino-1H-pyrazolo [3,4-b]pyridin-5-yl)benzylamino)-N-((tetrahydrofuran-2-yl)methyl)-5-(trifluoromethyl) nicotinamide]
[1]; inhibition of PDK1 in vitro
  IC50: 100 to 1000 nM
[2]; PC-3, 2 h, inhibition of P308 Akt in PC-3 cells using MSD
  EC50: 1000 to 10000 nM

## N#Cc1cnc(NCc2ccc(-c3cnc(N)cn3)cc2)c(C(=O)NCc2ccc(F)c(F)c2)c1 [Example 377, 2-(4-(5-aminopyrazin-2-yl)benzylamino)-5-cyano-N-(3,4-difluorobenzyl) nicotinamide]
[1]; inhibition of PDK1 in vitro
  IC50: < 100 nM
[2]; [3]
  EC50: 1000 to 10000 nM

## Cc1cc(N)ncc1-c1ccc(CNc2ncc(C#N)cc2C(=O)N[C@@H](C)c2ccc(F)cc2)cc1 [Example 121, (S)-2-(4-(6-amino-4-methylpyridin-3-yl)benzylamino)-5-cyano-N-(1-(4-fluorophenyl)ethyl) nicotinamide]
[1]; inhibition of PDK1 in vitro
  IC50: 100 to 1000 nM
[2]; [3]
  EC50: > 10000 nM

## N#Cc1ccc(NCc2ccc(-c3ccc4ncnc(N)c4c3)s2)c(C(=O)NCc2ccc(F)c(F)c2)c1 [Example 247, 2-(((5-(4-aminoquinazolin-6-yl)thiophen-2-yl)methyl)amino)-5-cyano-N-(3,4-difluorobenzyl)benzamide]
[1]; inhibition of PDK1 in vitro
  IC50: < 100 nM
[2]; [3]
  EC50: > 10000 nM

## Nc1ncnc2c1c(-c1ccc(CNc3ncc(C(F)(F)F)cc3C(=O)NCc3ccc(F)c(F)c3)cc1)cn2CCO [Example 333, 2-(4-(4-amino-7-(2-hydroxyethyl)-7H-pyrrolo[2,3-d]pyrimidin-5-yl)-benzylamino)-N-(3,4-difluorobenzyl)-5-(trifluoromethyl)nicotinamide]
[1]; inhibition of PDK1 in vitro
  IC50: < 100 nM
[2]; [3]
  EC50: < 1000 nM

## CC(C)Oc1cc(CNc2ncccc2C(=O)Nc2c(F)cccc2F)cc(-c2c[nH]c3ncc(C(=O)NC4CC4)cc23)c1 [Example 4.1.12, N-cyclopropyl-3-{3-[({3-[(2,6-difluorophenyl)carbamoyl]pyridin-2-yl}amino)methyl]-5-(propan-2-yloxy)phenyl}-1H-pyrrolo[2,3-b] pyridine-5-carboxamide]
[1]; [4]
  IC50: 1000 to 5000 nM
[2]; [5]
  EC50: > 10000 nM

## Nc1ncnn2c(-c3ccc(CNc4ncc(C(F)(F)F)cc4C(=O)NCc4ccc(F)c(F)c4)cc3)ccc12 [Example 179, 2-[4-(4-Amino-pyrrolo [2,1-f][1,2,4]triazin-7-yl)-benzylamino]-N-(3,4-difluoro-benzyl)-5-trifluoromethyl-nicotinamide]
[1]; inhibition of PDK1 in vitro
  IC50: 100 to 1000 nM
[2]; [3]
  EC50: 1000 to 10000 nM

## Nc1ncnc2ccc(-c3cccc(CNc4ncccc4C(=O)NCc4ccc(F)c(F)c4)c3)cc12 [Example 6.1, 2-(3-(4-aminoquinazolin-6-yl)benzylamino)-N-(3,4-difluorobenzyl)nicotinamide]
[1]; [4]
  IC50: < 100 nM
[2]; [5]
  EC50: 1000 to 10000 nM

## CNc1ncc2cc(O[C@@H](C)CNc3ncc(C#N)cc3C(=O)N[C@@H](C)c3ccc(F)cc3)ccc2n1 [Example 253, 5-cyano-N-((S)-1-(4-fluorophenyl)ethyl)-2-((S)-2-(2-(methylamino)quinazolin-6-yloxy)propylamino)nicotinamide]
[1]; inhibition of PDK1 in vitro
  IC50: 1000 to 5000 nM
[2]; [3]
  EC50: > 10000 nM

## C[C@H](NC(=O)c1cc(C#N)cnc1NCc1ccc(-c2cnc(N)c(OC(F)F)c2)cc1)c1ccc(F)cc1 [Example 134, (S)-2-(4-(6-amino-5-(difluoromethoxy)pyridin-3-yl)benzylamino)-5-cyano-N-(1-(4-fluorophenyl)ethyl)nicotinamide]
[1]; inhibition of PDK1 in vitro
  IC50: < 100 nM
[2]; [3]
  EC50: < 1000 nM

## Nc1n[nH]c2ncc(-c3ccc(CNc4ncc(C(F)(F)F)cc4C(=O)Nc4ccc(F)cc4)cc3)nc12 [Example 184]
[1]; inhibition of PDK1 in vitro
  IC50: < 100 nM
[2]; [3]
  EC50: < 1000 nM

## C[C@H](NC(=O)c1cc(C#N)cnc1NCc1ccc(-c2cnc3[nH]nc(CCCN)c3c2)cc1)c1ccc(F)cc1 [Example 150]
[1]; inhibition of PDK1 in vitro
  IC50: < 100 nM
[2]; [3]
  EC50: < 1000 nM

## Cn1cnc2cnc3ccc(-c4ccc(CNc5ncc(C(F)(F)F)cc5C(=O)NCc5ccc(F)c(F)c5)s4)cc3c21 [Example 2.26, N-(3,4-difluorobenzyl)-2-(((5-(1-methyl-1H-imidazo[4,5-c]quinolin-8-yl)thiophen-2-yl)methyl)amino)-5-(trifluoromethyl)nicotinamide]
[1]; [4]
  IC50: < 100 nM
[2]; [5]
  EC50: < 1000 nM
